# System: five species mix of representative oral bacterial species
# Assay: resazurin cell viability assay (bacterial metabolism/viability)
# Protocol: A five species mix of representative oral bacterial species was used to simulate the complex bacterial flora of the oral environment. A bacterial mix comprising Actinomyces viscosus, Lactobacillus casei, Streptococcus oralis, Fusobacteriaum nucleatum and Veillonella parvulal was incubated with the compound under investigation for 1 hour at 37° C., neutralized, washed and stained with 50 μg/ml resazurin solution. When viable bacteria are incubated with resazurin, the blue non-fluorescent dye is reduced by the bacteria to pink fluorescent resorufin. Fluorescence of the test sample is read at 560 nm excitation/590 nm emission and compared to the fluorescence of a standardized mixture of live and dead bacteria to determine the percentage of the initial population that is viable after incubation.
# In order to minimize the effects of formula excipients, dilute 1:100 and 1:10 dentifrice slurries of formulations in water were used in the assay. As before, the test compound (as a dilute slurry) was incubated with the bacteria for 1 hour at 37° C., neutralized, washed and stained with 50 μg/ml resazurin solution. The percentage of viable bacteria was then determined.
Substance,"% bacteria viable following treatment (aqueous test solutions, incubated 1 hour at 37° C., resazurin 50 μg/ml, fluorescence 560/590 nm) [%]","antibacterial efficacy compared with comparators (in words) (solutions of Example 1, Table 1)"
sodium lauryl ether sulfate [0.5 wt. % SLES],19.94,
zinc coceth sulfate [0.5 wt. % ZCS],,significantly more efficacious than surfactant alone or an aqueous solution of 0.8 wt. % total elemental zinc
